The text below walks through data of patent US7786083B2, “Metastin derivatives and use thereof” (Takeda Pharmaceutical Company Limited, priority 2006, dated 2010).

This assay concerns metastin receptors. As to the kind of experiment: Measurement of agonist activity by assaying changes in intracellular calcium ion level (FLIPR, Fluo-4 NW). Type of assay: cell-based, human. The settings on record: specific activity of the EC50 of a test compound based on the EC50 of Metastin (45-54), metastin receptor expression CHO cells. Here is the method:
1) Preparation of Human Metastin and Rat Metastin Stable Expression Cell Lines
Human metastin and rat metastin stable expression cell lines were obtained by transfecting the expression plasmid for animal cells into CHO/dhfr^− cells using CellPhect Transfection Kit (manufactured by GE Healthcare). First, 240 μL of Buffer A (attached to CellPhect Transfection Kit) was added to 9.6 μg of plasmid DNA dissolved in 240 μL of distilled water followed by stirring. After the mixture was settled for 10 minutes, 480 μL of Buffer B (attached to CellPhect Transfection Kit) was added to the mixture, which was vigorously stirred to form liposomes containing the DNA. Then, 4×10^5 CHO/dhfr^− cells (obtained from ATCC) were inoculated on a 60 mm Petri dish. After culturing the cells in Ham's F-12 medium (manufactured by Nissui Seiyaku Co., Ltd.) supplemented with 10% fetal bovine serum (manufactured by BIO […], Inc.) at 37° C. for 2 days in 5% carbon dioxide gas, […] of the liposomes were dropwise added to the cells on the Petri dish. After culturing the cells in a CO2 incubator (5% CO2, 37° C.) for 6 hours, the cells were washed twice with serum-free Ham's F-12 medium and 3 mL of 15% glycerol was added to the cells on the Petri dish followed by treatment for 2 minutes. The cells were again washed twice with serum-free Ham's F-12 medium followed by incubation in Ham's F-12 medium supplemented with 10% fetal bovine serum in a CO2 incubator (5% CO2, 37° C.) for 15 hours. The cells were dispersed by trypsin treatment to recover from the Petri dish. The recovered cells were inoculated on a 6-well plate in 1.25×10^4 cells each/well and incubation was initiated in a CO2 incubator (5% CO2, 37° C.) in Dulbecco's modified Eagle medium (DMEM, manufactured by Nissui Seiyaku) containing 10% dialyzed fetal bovine serum (manufactured by JRH BIOSCIENCES, Inc.). The plasmid-transfected CHO transformants grew in the medium but the non-transfected cells gradually died, accordingly the medium was exchanged on Days 1 and 2 after the initiation of incubation to remove the dead cells. Approximately 20 colonies of the CHO transformants that kept growing on Days 8 to 10 after the incubation were isolated. From the cells in these colonies, cells showing high reactivity with the ligand peptide metastin (hereinafter merely referred to as h175 KB19 and h175 KB29 strains) were selected to provide for the following experiment.
Human metastin expression CHO cell line (h175 KB19 strain is described in a separate section) and rat metastin expression CHO cell line (h175 KB29 strain is described in a separate section) were seeded in a 96-well plate (type 3904, manufactured by Corning) at 3×10^4 cells/well, followed by incubation in a CO2 incubator (5% CO2, 37° C.) for 24 hours. For the medium, MEMα medium (nucleic acid-free, manufactured by Nikken Bio Medical Laboratory) supplemented with dialyzed 10% fetal bovine serum (manufactured by Thermo, MultiSer) was used.
3) Loading with Fluo-4 NW in Cells
As an assay buffer, 1× Hanks' balanced salt solution (HBSS, manufactured by GIBCO) supplemented with 0.1% BSA, 20 mM HEPES (pH 7.4, manufactured by GIBCO) and 1 mM Probenecid (manufactured by Molecular Probes) was prepared. The medium in the wells of the cell-seeded plate was removed and 100 μL each of the assay buffer (kept warm at 37° C.) was added to each well. After 10 mL of the assay buffer (the volume for assaying two plates) was charged in one Fluo-4NW dye mix (Component A, Fluo-4 NW calcium assay kit (starter pack), manufactured by Molecular Probes) bottle, the mixture was gently stirred to prepare the Fluo-4 NW loading solution. This loading solution was charged in each well by 50 μl each and reacted in a CO2 incubator (5% CO2, 37° C.) for 30 minutes for loading with Fluo-4 NW into the cells. Subsequently, the cells were settled at room temperature (25° C.) for 15 minutes and then used for assay.
4) Measurement of Agonist Activity […]
For orientation: A change in cytosolic calcium serves as a functional read-out for many receptors and channels.

*1 amine or outer side, *2 acyl side, *3 side chain or, on linkers, in order; H or OH if unused. Where a SMILES comes first, the peptide text is derived from it. [ ]: non-standard residue; d: D form. Hexanoyl(5S-NH,4S-OH,6-Ph) = O=C(CC[C@H](O)[C@H](Cc1ccccc1)N[*:1])[*:2]; Glyψ(E-CHCH)Leu = CC(C)C[C@H](/C=C/CN[*:1])C(=O)[*:2]; X2 = O=C(/C=C/[C@@H](O)[C@H](Cc1ccccc1)N[*:1])[*:2]; X5 = O=C(/C=C/[C@H](O)[C@H](Cc1ccccc1)N[*:1])[*:2]; X3 = O=C(CC[C@@H](O)[C@H](Cc1ccccc1)N[*:1])[*:2]; X7 = O=C(C/C=C/[C@H](Cc1ccccc1)N[*:1])[*:2]; Phe(3-Me) = Cc1cccc(C[C@H](N)C(=O)O)c1; Phe(4-Me) = Cc1ccc(C[C@H](N)C(=O)O)cc1; Phe(2-Me) = Cc1ccccc1C[C@H](N)C(=O)O; Arg(Me) = CNC(=N)NCCC[C@H](N)C(=O)O; Dap(CONH2) = NC(=O)NC[C@H](N)C(=O)O; Ala(cPr) = N[C@@H](CC1CC1)C(=O)O; Hyp = O=C(O)[C@@H]1C[C@@H](O)CN1; αMeF = C[C@](N)(Cc1ccccc1)C(=O)O; Cha = N[C@@H](CC1CCCCC1)C(=O)O

On to `CNC(=N)NCCC[C@H](NC(=O)[C@H](CC(C)C)NC(=O)CNC(=O)[C@H](Cc1ccccc1)NC(=O)[C@@H](NC(=O)[C@H](CC(N)=O)NC(=O)[C@H](CCC(=O)O)NC(=O)[C@@H](Cc1ccc(O)cc1)NC(C)=O)[C@@H](C)O)C(=O)N[C@@H](Cc1c[nH]c2ccccc12)C(N)=O` [Compound No. 852, des(1)-Ac-[D-Tyr2,Glu3,Thr5,Arg(Me)9,Trp10]MS10] (Ac-[dY]ENTFGL[Arg(Me)]W-NH2), for which the “Specific Activity” value is reported as 0.5.
Consider `CNC(=N)NCCC[C@H](NC(=O)[C@H](CC(C)C)NC(=O)CNC(=O)[C@H](CC1CCCCC1)NC(=O)[C@@H](NC(=O)[C@H](CC(N)=O)NC(=O)[C@H](CCC(=O)O)NC(=O)[C@@H](Cc1ccc(O)cc1)NC(C)=O)[C@@H](C)O)C(=O)N[C@@H](Cc1c[nH]c2ccccc12)C(N)=O` [Compound No. 853, des(1)-Ac-[D-Tyr2,Glu3,Thr5,Cha6,Arg(Me)9,Trp10]MS10] (Ac-[dY]ENT[Cha]GL[Arg(Me)]W-NH2), for which the “Specific Activity” value came out at 0.6.
With `CNC(=N)NCCC[C@H](NC(=O)[C@H](CC(C)C)NC(=O)CNC(=O)[C@H](CC1CC1)NC(=O)[C@@H](NC(=O)[C@H](CC(N)=O)NC(=O)[C@@H]1C[C@@H](O)CN1C(=O)[C@@H](Cc1ccc(O)cc1)NC(C)=O)[C@@H](C)O)C(=O)N[C@@H](Cc1c[nH]c2ccccc12)C(N)=O` [Compound No. 855, des(1)-Ac-[D-Tyr2,Hyp3,Thr5,Ala(cPr)6,Arg(Me)9,Trp10]MS10] (Ac-[dY][Hyp]NT[Ala(cPr)]GL[Arg(Me)]W-NH2), the “Specific Activity” value amounted to 1.9.
On to `CNC(=N)NCCC[C@H](NC(=O)[C@H](CC(C)C)NC(=O)CC[C@H](O)[C@H](Cc1ccccc1)NC(=O)[C@@H](NC(=O)[C@H](CC(N)=O)NC(=O)[C@@H]1C[C@@H](O)CN1C(=O)[C@@H](Cc1ccc(O)cc1)NC(C)=O)[C@@H](C)O)C(=O)N[C@@H](Cc1c[nH]c2ccccc12)C(N)=O` [Compound No. 857, des(1)-Ac-[D-Tyr2,Hyp3,Thr5,Phe6Ψ((S)CHOH—CH2)Gly7,Arg(Me)9,Trp10]MS10] (Ac-[dY][Hyp]NT[Hexanoyl(5S-NH,4S-OH,6-Ph)]L[Arg(Me)]W-NH2), for which the “Specific Activity” value was 1.2.
Regarding `CNC(=N)NCCC[C@H](NC(=O)[C@H](CC(C)C)NC(=O)/C=C/[C@H](O)[C@H](Cc1ccccc1)NC(=O)[C@@H](NC(=O)[C@H](CC(N)=O)NC(=O)[C@@H]1C[C@@H](O)CN1C(=O)[C@@H](Cc1ccc(O)cc1)NC(C)=O)[C@@H](C)O)C(=O)N[C@@H](Cc1c[nH]c2ccccc12)C(N)=O` [Compound No. 858, des(1)-Ac-[D-Tyr2,Hyp3,Thr5,Phe6Ψ((S)CHOH—(E)CH=)Gly7,Arg(Me)9,Trp10]MS10] (Ac-[dY][Hyp]NT[X5]L[Arg(Me)]W-NH2), the “Specific Activity” value was determined as 1.7.
The same measure for `CNC(=N)NCCC[C@H](NC(=O)[C@H](CC(C)C)NC(=O)C/C=C/[C@H](Cc1ccccc1)NC(=O)[C@@H](NC(=O)[C@H](CC(N)=O)NC(=O)[C@@H]1C[C@@H](O)CN1C(=O)[C@@H](Cc1ccc(O)cc1)NC(C)=O)[C@@H](C)O)C(=O)N[C@@H](Cc1c[nH]c2ccccc12)C(N)=O` [Compound No. 859, des(1)-Ac-[D-Tyr2,Hyp3,Thr5,Phe6Ψ((E)CH═CH)Gly7,Arg(Me)9,Trp10]MS10] (Ac-[dY][Hyp]NT[X7]L[Arg(Me)]W-NH2): 0.7.
For the molecule `CNC(=N)NCCC[C@H](NC(=O)[C@H](CC(C)C)NC(=O)/C=C/[C@@H](O)[C@H](Cc1ccccc1)NC(=O)[C@@H](NC(=O)[C@H](CC(N)=O)NC(=O)[C@@H]1C[C@@H](O)CN1C(=O)[C@@H](Cc1ccc(O)cc1)NC(C)=O)[C@@H](C)O)C(=O)N[C@@H](Cc1c[nH]c2ccccc12)C(N)=O` [Compound No. 866, des(1)-Ac-[D-Tyr2,Hyp3,Thr5,Phe6Ψ((R)CHOH—(E)CH=)Gly7,Arg(Me)9,Trp10]MS10] (Ac-[dY][Hyp]NT[X2]L[Arg(Me)]W-NH2), the “Specific Activity” value is on record as 1.4.
Take `CNC(=N)NCCC[C@H](NC(=O)[C@H](CC(C)C)NC(=O)CC[C@@H](O)[C@H](Cc1ccccc1)NC(=O)[C@@H](NC(=O)[C@H](CC(N)=O)NC(=O)[C@@H]1C[C@@H](O)CN1C(=O)[C@@H](Cc1ccc(O)cc1)NC(C)=O)[C@@H](C)O)C(=O)N[C@@H](Cc1c[nH]c2ccccc12)C(N)=O` [Compound No. 867, des(1)-Ac-[D-Tyr2,Hyp3,Thr5,Phe6Ψ((R)CHOH—CH2)Gly7,Arg(Me)9,Trp10]MS10] (Ac-[dY][Hyp]NT[X3]L[Arg(Me)]W-NH2): the “Specific Activity” value is recorded as 0.8.
Take `CNC(=N)NCCC[C@H](NC(=O)[C@H](CC(C)C)NC(=O)CNC(=O)[C@](C)(Cc1ccccc1)NC(=O)[C@@H](NC(=O)[C@H](CC(N)=O)NC(=O)[C@@H]1C[C@@H](O)CN1C(=O)[C@@H](Cc1ccc(O)cc1)NC(C)=O)[C@@H](C)O)C(=O)N[C@@H](Cc1c[nH]c2ccccc12)C(N)=O` [Compound No. 869, des(1)-Ac-[D-Tyr2,Hyp3,Thr5,αMePhe6,Arg(Me)9,Trp10]MS10] (Ac-[dY][Hyp]NT[αMeF]GL[Arg(Me)]W-NH2): the “Specific Activity” value turned out to be 3.8.
As for `CNC(=N)NCCC[C@H](NC(=O)[C@H](CC(C)C)NC(=O)CNC(=O)[C@H](Cc1ccccc1C)NC(=O)[C@@H](NC(=O)[C@H](CC(N)=O)NC(=O)[C@@H]1C[C@@H](O)CN1C(=O)[C@@H](Cc1ccc(O)cc1)NC(C)=O)[C@@H](C)O)C(=O)N[C@@H](Cc1c[nH]c2ccccc12)C(N)=O` [Compound No. 871, des(1)-Ac-[D-Tyr2,Hyp3,Thr5,Phe(2Me)6,Arg(Me)9,Trp10]MS10] (Ac-[dY][Hyp]NT[Phe(2-Me)]GL[Arg(Me)]W-NH2), the “Specific Activity” value amounted to 0.7.
For `CNC(=N)NCCC[C@H](NC(=O)[C@H](CC(C)C)NC(=O)CNC(=O)[C@H](Cc1cccc(C)c1)NC(=O)[C@@H](NC(=O)[C@H](CC(N)=O)NC(=O)[C@@H]1C[C@@H](O)CN1C(=O)[C@@H](Cc1ccc(O)cc1)NC(C)=O)[C@@H](C)O)C(=O)N[C@@H](Cc1c[nH]c2ccccc12)C(N)=O` [Compound No. 873, des(1)-Ac-[D-Tyr2,Hyp3,Thr5,Phe(3Me)6,Arg(Me)9,Trp10]MS10] (Ac-[dY][Hyp]NT[Phe(3-Me)]GL[Arg(Me)]W-NH2), the “Specific Activity” value is 0.8.
On to `CNC(=N)NCCC[C@H](NC(=O)[C@H](CC(C)C)NC(=O)CNC(=O)[C@H](Cc1ccc(C)cc1)NC(=O)[C@@H](NC(=O)[C@H](CC(N)=O)NC(=O)[C@@H]1C[C@@H](O)CN1C(=O)[C@@H](Cc1ccc(O)cc1)NC(C)=O)[C@@H](C)O)C(=O)N[C@@H](Cc1c[nH]c2ccccc12)C(N)=O` [Compound No. 875, des(1)-Ac-[D-Tyr2,Hyp3,Thr5,Phe(4Me)6,Arg(Me)9,Trp10]MS10] (Ac-[dY][Hyp]NT[Phe(4-Me)]GL[Arg(Me)]W-NH2), for which the “Specific Activity” value stood at 0.9.
To `CNC(=N)NCCC[C@H](NC(=O)[C@H](CC(C)C)NC(=O)CNC(=O)[C@H](Cc1ccccc1)NC(=O)[C@@H](NC(=O)[C@H](CNC(N)=O)NC(=O)[C@@H]1C[C@@H](O)CN1C(=O)[C@@H](Cc1ccc(O)cc1)NC(C)=O)[C@@H](C)O)C(=O)N[C@@H](Cc1c[nH]c2ccccc12)C(N)=O` [Compound No. 885, des(1)-Ac-[D-Tyr2,Hyp3,Alb4,Thr5,Arg(Me)9,Trp10]MS10] (Ac-[dY][Hyp][Dap(CONH2)]TFGL[Arg(Me)]W-NH2) belongs 0.5.
With `CNC(=N)NCCC[C@H](NC(=O)[C@@H](/C=C/CNC(=O)[C@H](Cc1ccccc1)NC(=O)[C@@H](NC(=O)[C@H](CC(N)=O)NC(=O)[C@@H]1C[C@@H](O)CN1C(=O)[C@@H](Cc1ccc(O)cc1)NC(C)=O)[C@@H](C)O)CC(C)C)C(=O)N[C@@H](Cc1c[nH]c2ccccc12)C(N)=O` [Compound No. 892, des(1)-Ac-[D-Tyr2,Hyp3,Thr5,Gly7Ψ((E)CH═CH)Leu8,Arg[(Me)9,Trp10]MS10] (Ac-[dY][Hyp]NTF[Glyψ(E-CHCH)Leu][Arg(Me)]W-NH2), the “Specific Activity” value amounted to 0.6.
